± gives the expanded uncertainty stated by the source.
Conditions: Crystal; visual observation

Normal melting temperature: 278.00 ± 0.5 °C
SMILES: CN1CCN(c2cc3c(cc2F)c(=O)c(C(=O)O)cn3-c2ccc(F)cc2)CC1 [difloxacin]

From the NIST ThermoML archive (doi:10.1021/je800742d)
